# Results reported in US20230398237A1 (priority 2020, published 2023).
# What was measured:
# [1] = test system: serum proteins (fetal bovine serum); assay: Serum protein binding test by agarose gel electrophoresis; format: in vitro ADME; conditions: 10% FBS, 37° C., 30 min
# Method: Coomassie brilliant blue 250 (CBB) was used to stain FBS. Color pictures of CBB-stained protein were inserted.
# All these samples were analyzed using 2% agarose gel electrophoresis. […] The fluorescence images were taken by Carestream In-vivo FX Pro imaging system under 790 nm/830 nm. Non-invasive fluorescence imaging of body with ICG-PEG conjugates and ex vivo images
# [2] = before elimination through the liver; cited from earlier work
# [3] = Clearance efficiencies in urine and feces; conditions: within 24 h post intravenous injection
# Excerpt: Then, the urine and feces were quantified based on fluorescence and each standard curve of conjugates were built in control urine and control feces.
# [4] = test system: organic anion transporter; assay: Probenecid inhibition studies (renal clearance efficiency); format: in vivo, BALB/c mice; conditions: 200 mg/kg probenecid i.p., urine at 30 min p.i.
# Method: BALB/c mice were pre-treated by intraperitoneal injection of 200 mg/kg probenecid and control group were treated by PBS. […] The mice were anesthetized under 3% isoflurane for 30 min under steady breath rate of 7-8 times per 15 sec. After 30 min, the urine was collected from bladder and quantified by fluorescence.
compound,measurement,setting,value
"CC1(C)C(/C=C/C=C/C=C/C=C2\N(CCCCS(=O)(=O)O)c3ccc4ccccc4c3C2(C)C)=[N+](CCCCS(=O)(=O)[O-])c2ccc3ccccc3c21 [ICG, Indocyanine green]",serum protein binding,[1],completely binds protein
same,time retained in normal renal parenchyma,[2],< 15 min
same,clearance percentage in feces,[3],85.3 % ID
FITC-inulin,effect of probenecid on renal clearance efficiency,[4],no significant difference
